Laboratory results reported in patent publication US20250205178A1, “METHODS AND COMPOSITIONS FOR INHIBITING VIRAL […]” (ARIZONA BOARD OF REGENTS ON BEHALF OF THE UNIVERSITY OF …, priority 2022, published 2025).
“Also recorded” adds a separate entry of the source. Like-named read-outs stand apart in the source and are kept apart here.

Key:
[1] = target: T1, DENV3 MTase (Dengue virus type 3, UniProt Q6YMS4); assay: FL-NAH FP binding assay, DENV3 MTase
[2] = target: NSP14-NSP10 complex (Severe acute respiratory syndrome coronavirus 2, UniProt P0DTD1); assay: FL-NAH FP binding assay, NSP14-NSP10 complex; design: species or system SARS-CoV-2; settings: 50 nM FL-NAH, read-out: binding affinity of FL-NAH
Method: FP was calculated by measuring the parallel and perpendicular fluorescence with excitation and emission wavelengths of 485 nm and 528 nm, respectively. N=3
Using purified proteins, we investigated whether binding of FL-NAH to the NSP14 MTase could be monitored by FP. […] In addition, we investigated if FL-NAH is also bound to the NSP14/NSP10 complex. […] The results confirmed that NSP10 was not required for the NSP14 MTase function. Since NSP10 had only minimal effects on the NSP14 MTase activity, all the following experiments were performed using the NSP14 MTase alone.

[3] = target: T2, YFV MTase (Yellow fever virus, UniProt P03314); assay type: binding; settings: read-out: KD of FL-NAH
[4] = target: ZIKV MTase (Zika virus, UniProt A0A024B7W1); assay type: binding; settings: read-out: KD of FL-NAH
[5] = target: T3, WNV MTase (West Nile virus, UniProt Q9Q6P4); assay type: binding; settings: read-out: KD of FL-NAH
[6] = target: YFV N7 MTase (Yellow fever virus, UniProt P03314); settings: read-out: IC50-HTRF
[7] = test system: DENV2 replicon; settings: read-out: EC50-DENV2 Replic; DENV2 replicon cell line
[8] = target: Human RNA MTase (hRNMT) (Homo sapiens, UniProt O43148); settings: read-out: IC50-disp
[9] = target: ZIKV N7 MTase (Zika virus, UniProt A0A024B7W1); assay type: biochemical
[10] = target: T4, SARS-CoV-2 NSP14 MTase (Severe acute respiratory syndrome coronavirus 2, UniProt P0DTD1); settings: read-out: IC50-TLC, NSP14 MTase activity
[11] = test system: SARS-CoV-2 WA strain; assay: Checkerboard compound combination assay (plaque) in Vero-E6 cells; assay type: cell-based
Method: The 2D compound-compound interactions were determined by checkerboard titration in a 96-well plate. Vero-E6 cells were seeded one day before combination test at 3×10^4 cells/each well. The first compound (A) was serially diluted along the x axis (columns 3 to 8); and the second compound (B) was serially diluted along the y axis (from row A to F) in the 96-well plate. The last two columns (columns 9 and 10) contained compound B-alone controls and the last two rows (row G and H) contained compound A-alone controls. After the cells grew into monolayer, the medium was discard, followed by addition of 50 μl compound mixture. Then 50 μl SARS-CoV-2 WA strain was added at MOI of 0.01.
The plate was incubated at 37° C., 5% CO2 for 1 hour. Then 100 μl overlay medium (DMEM+2% FBS+1% Methylcellulose) was added and the plate was further incubated at 37° C., 5% CO2. After 3 days, cells were fixed with 10% neutral formalin for 30 minutes, wash with water for more than 6 times and then stained with 50 μl Crystal Violet (0.5% in methanol/water) for 4 minutes. The staining solution was removed by aspiration and the plate was rinsed with water, and dried thoroughly. Plaques were counted and numbers were recorded to calculate the percentage of inhibition. SynergyFinder was used to analyze the synergistic effect of the two compounds (https://synergyfinder.fimm.fi/synergy/20230202071113839465/). Each combination testing experiment has three replicates.

[12] = target: T1, DENV3 MTase; assay: TLC MTase activity assay, DENV3; assay type: biochemical
[13] = test system: ZIKV; assay: Antiviral immunofluorescence assay (IFA), ZIKV; assay type: cell-based
[14] = target: WNV N7 MTase (West Nile virus, UniProt Q9Q6P4); assay type: biochemical
[15] = target: SARS-CoV-2 NSP14 N7-MTase (Severe acute respiratory syndrome coronavirus 2, UniProt P0DTD1); settings: read-out: IC50-HTRF, NSP14 MTase activity; GpppA dinucleotide substrate
[16] = target: T3, WNV MTase; assay type: binding
[17] = target: T4, SARS-CoV-2 NSP14 MTase; settings: read-out: IC50-MS, NSP14 MTase activity
[18] = test system: human lung carcinoma A549 cells; assay: WST-8 cytotoxicity assay in A549 cells; assay type: cell-based
Method: As previously mentioned, cytotoxicity to the human lung carcinoma A549 cells was assessed using a WST-8 cell proliferation assay kit (Dojindo Molecular Technologies, Inc.).
To further characterize these candidate inhibitors, we investigated the cytotoxicity of NSC 111552 and 288387 to human A549 lung carcinoma cells, using a WST-8 cell viability kit, as we described previously.

[19] = test system: SARS-CoV-2 WT strain (Washington strain); assay: Immunofluorescence assay, SARS-CoV-2 WT Washington strain; assay type: cell-based; settings: Vero E6, WT Washington strain 0.01 MOI, 24 h
[20] = target: DENV3 NS5 N7 MTase (Dengue virus type 3, UniProt Q6YMS4); assay: HTRF MTase functional assay, DENV3; assay type: biochemical
[21] = target: ZIKV NS5 MTase (Zika virus, UniProt A0A024B7W1); assay type: binding
[22] = target: T4, SARS-CoV-2 NSP14 MTase; assay type: binding; settings: for IC50: 50 nM FL-NAH, NSP14 MTase, read-out: IC50-disp, inhibition of FL-NAH binding
[23] = test system: DENV2; assay: Antiviral immunofluorescence assay (IFA), DENV2; assay type: cell-based
[24] = test system: SARS-CoV-2; settings: read-out: Antiviral EC50; Vero cells, plaques at 72 h post-infection
[25] = target: T5, DENV3 NS5 MTase (Dengue virus type 3, UniProt Q6YMS4); assay: FL-NAH FP displacement assay, DENV3 NS5; assay type: binding
[26] = target: T5, DENV3 NS5 MTase; settings: MST
[27] = target: T2, YFV MTase; settings: read-out: IC50-disp
[28] = test system: SARS-CoV-2 Omicron strain (BA.1.1); assay: Immunofluorescence assay, SARS-CoV-2 Omicron strain; assay type: cell-based
[29] = target: SARS-CoV-2 NSP14 (Severe acute respiratory syndrome coronavirus 2, UniProt P0DTD1); settings: read-out: NSP14 KD; MST, NSP14 40 nM
[30] = target: SARS-CoV-2 NSP16 MTase (Severe acute respiratory syndrome coronavirus 2, UniProt P0DTD1); assay: FL-NAH FP displacement assay, NSP16; assay type: binding; settings: SAH 25 μM, 31.25 μM or 50 μM; NSP16 0.5 μM; p<0.0001

T5 sequence (Q6YMS4 2492-2753): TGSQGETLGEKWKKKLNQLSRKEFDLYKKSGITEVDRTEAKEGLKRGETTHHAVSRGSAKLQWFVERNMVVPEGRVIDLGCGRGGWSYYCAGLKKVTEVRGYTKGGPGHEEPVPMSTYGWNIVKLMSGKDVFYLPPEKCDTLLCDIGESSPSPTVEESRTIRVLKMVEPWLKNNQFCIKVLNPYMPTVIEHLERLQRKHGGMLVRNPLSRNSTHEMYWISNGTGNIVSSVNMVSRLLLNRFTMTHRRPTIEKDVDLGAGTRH
T1 sequence (Q6YMS4 2492-2753): as above
Chain of ZIKV NS5 MTase (A0A024B7W1 2521-2785 limits assumed): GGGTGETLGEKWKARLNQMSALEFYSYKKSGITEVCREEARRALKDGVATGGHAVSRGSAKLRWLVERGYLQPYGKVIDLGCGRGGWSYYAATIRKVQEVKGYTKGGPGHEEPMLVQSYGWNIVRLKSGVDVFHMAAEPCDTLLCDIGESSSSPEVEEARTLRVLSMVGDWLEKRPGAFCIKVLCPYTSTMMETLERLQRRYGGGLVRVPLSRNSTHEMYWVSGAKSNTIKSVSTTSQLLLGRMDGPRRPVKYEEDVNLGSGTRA
T3 sequence (Q9Q6P4 2529-2794 limits assumed): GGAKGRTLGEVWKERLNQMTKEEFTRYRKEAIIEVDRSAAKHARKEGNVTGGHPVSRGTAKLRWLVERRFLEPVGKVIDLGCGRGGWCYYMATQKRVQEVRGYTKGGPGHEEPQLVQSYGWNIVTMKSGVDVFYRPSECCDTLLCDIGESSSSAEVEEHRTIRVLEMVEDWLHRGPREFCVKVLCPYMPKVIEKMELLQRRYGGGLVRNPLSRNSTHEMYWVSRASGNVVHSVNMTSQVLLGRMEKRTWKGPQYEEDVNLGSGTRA
T2 sequence (P03314 2507-2771 limits assumed): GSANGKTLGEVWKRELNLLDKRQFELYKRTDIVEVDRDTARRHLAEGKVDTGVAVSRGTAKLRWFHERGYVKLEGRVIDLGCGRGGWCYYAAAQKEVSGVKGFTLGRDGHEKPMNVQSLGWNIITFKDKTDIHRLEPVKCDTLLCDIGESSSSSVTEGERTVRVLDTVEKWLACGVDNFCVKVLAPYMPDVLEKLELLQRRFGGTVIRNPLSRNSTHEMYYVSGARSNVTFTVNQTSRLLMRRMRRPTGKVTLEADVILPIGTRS
Chain of DENV3 NS5 N7 MTase (Q6YMS4 2492-2753): as the sequence (Q6YMS4 2492-2753) above
Chain of ZIKV N7 MTase (A0A024B7W1 2521-2785 limits assumed): as the sequence (A0A024B7W1 2521-2785 limits assumed) above
Chain of WNV N7 MTase (Q9Q6P4 2529-2794 limits assumed): as the sequence (Q9Q6P4 2529-2794 limits assumed) above
Chain of Human RNA MTase (hRNMT) (O43148 whole entry): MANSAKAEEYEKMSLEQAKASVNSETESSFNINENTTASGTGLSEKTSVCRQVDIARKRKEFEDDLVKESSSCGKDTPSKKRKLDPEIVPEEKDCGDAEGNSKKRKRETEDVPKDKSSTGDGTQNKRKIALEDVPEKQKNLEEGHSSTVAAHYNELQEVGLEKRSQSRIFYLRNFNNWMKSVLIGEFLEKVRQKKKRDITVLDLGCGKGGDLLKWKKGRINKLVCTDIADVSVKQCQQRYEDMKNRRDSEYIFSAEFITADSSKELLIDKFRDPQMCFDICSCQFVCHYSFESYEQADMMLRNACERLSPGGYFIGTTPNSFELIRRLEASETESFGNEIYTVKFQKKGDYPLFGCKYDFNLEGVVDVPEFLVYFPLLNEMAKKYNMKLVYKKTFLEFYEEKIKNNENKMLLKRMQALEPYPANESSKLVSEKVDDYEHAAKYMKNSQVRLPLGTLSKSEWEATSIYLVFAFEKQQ
Chain of YFV N7 MTase (P03314 2507-2771 limits assumed): as the sequence (P03314 2507-2771 limits assumed) above
Chain of ZIKV MTase (A0A024B7W1 2521-2785 limits assumed): as the sequence (A0A024B7W1 2521-2785 limits assumed) above

## Nc1ncnc2c1ncn2[C@@H]1O[C@H](CN(CC[C@H](N)C(=O)O)Cc2cn(CCNC(=O)c3ccc4c(c3)C(=O)OC43c4ccc(O)cc4Oc4cc(O)ccc43)nn2)[C@@H](O)[C@H]1O [FL-NAH, fluorescein N-adenosylhomocysteine]
[1]
  Kd: 0.61 µM
[2]
  Kd: 0.81 µM
[3]
  Kd: 3 µM
[4]
  Kd: 3.5 µM
[5]
  Kd: 0.28 µM

## CC(=O)c1cc(O)c2ccccc2c1O [NSC 111552]
[6]
  IC50: 26.7 µM
[7]
  EC50: 5 µM
[8]
  IC50: 63.3 µM
[9]
  IC50: 12.9 µM
[10]
  IC50: 7 µM
[11]; NSC111552 in combination with nirmatrelvir
  maximal ZIP-score: 21
[11]; NSC111552 in combination with remdesivir
  maximal ZIP-score: 24
[12]
  IC50: 1.1 µM
[13]
  EC50: 0.9 µM
[14]
  IC50: 5.2 µM
[15]
  IC50: 2.2 µM
[16]
  IC50: 5.7 µM
[17]
  IC50: 1.5 µM
[18]
  CC50: ~187 µM
[19]
  viral titer in IFA: dose-dependently reduced the viral titer
[20]
  IC50: 3.9 µM
[21]
  IC50: 7.3 µM
[22]
  IC50: 5.1 µM
[23]
  EC50: 0.32 µM
[24]
  EC50: 8.5 µM
[25]; DENV3, DTT (1 mM)
  IC50: 1.6 µM
[25]; DENV3, No DTT
  IC50: 1.1 µM
[26]
  Kd: 4.6 µM
[27]
  IC50: 46 µM
[28]
  viral titer in IFA: dose-dependently reduced the viral titer
[29]
  Kd: 2.1 µM

## COCCn1c2nc(=O)n(-c3ccccc3)c(=O)c-2nc2ccccc21 [NSC 288387]
[6]
  IC50: 11.2 µM
[7]
  EC50: 11.4 µM
[8]
  IC50: 35.5 µM
[9]
  IC50: 6.8 µM
[10]
  IC50: 2.5 µM
[12]
  IC50: 1.6 µM
[13]
  EC50: 0.69 µM
[14]
  IC50: 12.2 µM
[15]
  IC50: 2.2 µM
[16]
  IC50: 13 µM
[17]
  IC50: 4.3 µM
[18]
  CC50: 57 µM
[19]
  viral titer in IFA: dose-dependently reduced the viral titer
[20]
  IC50: 6 µM
[21]
  IC50: 4.9 µM
[22]
  IC50: 2.7 µM
[23]
  EC50: 0.53 µM
[24]
  EC50: 5.7 µM
[25]; DENV3, DTT (1 mM)
  IC50: 3.9 µM
[25]; DENV3, No DTT
  IC50: 1.3 µM
[25]; with vs without DTT
  effect of DTT (1 mM) on potency in inhibiting FL-NAH binding: reducing its potency by about threefold
[26]
  Kd: 3.2 µM
[27]
  IC50: 10 µM
[28]
  viral titer in IFA: dose-dependently reduced the viral titer
[29]
  Kd: 1.5 µM

## Nc1ncnc2c1ncn2[C@@H]1O[C@H](CSCC[C@H](N)C(=O)O)[C@@H](O)[C@H]1O [SAH, S-adenosyl-L-homocysteine]
[21]
  inhibition of FL-NAH binding (FP): inhibited; also recorded: quenched
[30]
  inhibition of FL-NAH binding (FP): inhibited; also recorded: quenched
[22]; SAH 25 μM, 31.25 μM or 50 μM, NSP14 0.5 μM, p<0.0001
  inhibition of FL-NAH binding (FP): inhibited

## C[S+](CC[C@H](N)C(=O)O)C[C@H]1O[C@@H](n2cnc3c(N)ncnc32)[C@H](O)[C@@H]1O (stereo partly shown) [SAM, S-adenosylmethionine]
[21]
  inhibition of FL-NAH binding (FP): quenched
[30]
  inhibition of FL-NAH binding (FP): quenched

## CC(C)(C)[C@H](NC(=O)C(F)(F)F)C(=O)N1C[C@H]2[C@@H]([C@H]1C(=O)N[C@H](C#N)C[C@@H]1CCNC1=O)C2(C)C [nirmatrelvir]
[11]; Severe acute respiratory syndrome coronavirus 2, Vero C1008, nirmatrelvir alone, read-out: EC50
  EC50: 0.056 µM
[11]; Severe acute respiratory syndrome coronavirus 2, Vero C1008, nirmatrelvir in the presence of NSC111552
  EC50: ~0.031 µM
[11]; nirmatrelvir, in the presence of NSC111552
  EC50 shift: ~1.8 fold

## CCC(CC)COC(=O)[C@H](C)N[P@](=O)(OC[C@H]1O[C@@](C#N)(c2ccc3c(N)ncnn23)[C@H](O)[C@@H]1O)Oc1ccccc1 [remdesivir]
[11]; Severe acute respiratory syndrome coronavirus 2, Vero C1008, remdesivir alone, read-out: EC50
  EC50: 0.04 µM
[11]; Severe acute respiratory syndrome coronavirus 2, Vero C1008, remdesivir with NSC111552 ([…]), read-out: EC50
  EC50: 0.017 µM
[11]; remdesivir with NSC111552 ([…])
  EC50 decrease: about 2.4 fold
